Like-named read-outs stand apart in the source and are kept apart here.
System: adhesion of U937 cells to HUVEC stimulated by IL-1β or TNFα
Test: Inhibitory effect on cell adhesion (U937 adhesion to stimulated HUVEC)
Type: cell-based
Conditions: Homo sapiens, compound at 1 μM, fluorescence-labeled U937 adhesion for 1 hour
Protocol: This test was conducted by reference to the method of Ross et al. (J. Biol. Chem., 267, 8537-8543 (1992)). More specifically, after human umbilical venous endothelial cells (HUVEC) were cultured on a 48-well plate to confluent growth, IL−1β or TNFα was added thereto. Upon elapsed time of 5 hours after the addition, U937, which is a human monocytic/histocytic cell fluorescence-labeled with PKH2 (product of Dainippon Pharmaceutical Co., Ltd.), was added in a proportion of 1×10^6 cells per well. After the plate was left at rest at room temperature for 1 hour, unadhered U937 was washed out and lysed in 1% Triton X-100 to measure a remaining fluorescence intensity (excitation wavelength: 480 nm; measuring wavelength: 530 nm). HUVEC and U937 were cultured in EGM-2 (product of Sanko Junyaku K.K.) and 10% FCS-containing RPMI1640, respectively. Each test agent was added to HUVEC upon the addition of IL-1β or TNFα and to U937 24 hours prior to the cell adhesion test. The inhibitory activity was calculated out according to the equation [100−(C−B)/(A−B)×100 (%)], wherein A is the number of U937 cells adhered to HUVEC stimulated by IL−1β or TNFα when no test agent was added, B is the number of U937 cells adhered to HUVEC not stimulated by IL-1β or TNFα when no test agent was added, and C is the number of U937 cells adhered to HUVEC stimulated by ILβ or TNFα when the test agent was added. As control compounds, Test Compound 1 described in Japanese Patent Application Laid-Open No. 9-143075 and dilazep described in Japanese Patent Application Laid-Open No. 11-92382 were simultaneously evaluated.

[1] = HUVEC stimulated by IL-1β for 5 hours, read-out: Percent inhibition (%) of cell adhesion, Stimulation by IL-1β
[2] = HUVEC stimulated by TNFα for 5 hours, read-out: Percent inhibition (%) of cell adhesion, Stimulation by TNFα

| SMILES | inhibition at 1 µM [1] [%] | inhibition at 1 µM [2] [%] |
| --- | --- | --- |
| COc1cc(C(=O)OCCCN2CCCN(CCCOC(=O)c3cc(OC)c(OC)c(OC)c3)CC2)cc(OC)c1OC [Dilazep, dilazep, reference compound] | 0 | 12 |
| COc1cc(-c2cccc(CN3CCCN(Cc4cccc(-c5cc(OC)c(OC)c(OC)c5)c4)CC3)c2)cc(OC)c1OC [Example 4, N,N′-bis[3-(3,4,5-Trimethoxyphenyl)benzyl]-homopiperazine] | 42 | 43 |
| COc1cc(-c2cc(CN3CCN(Cc4ccnc(-c5cc(OC)c(OC)c(OC)c5)c4)CC3)ccn2)cc(OC)c1OC [Example 9, N,N′-bis[[2-(3,4,5-Trimethoxyphenyl)pyridin-4-yl]methyl]piperazine] | 53 | 64 |
| COc1cc(-c2cc(CN3CCCN(Cc4ccnc(-c5cc(OC)c(OC)c(OC)c5)c4)CC3)ccn2)cc(OC)c1OC [Example 10, N,N′-bis[[2-(3,4,5-Trimethoxyphenyl)pyridin-4-yl]methyl]homopiperazine] | 63 | 71 |
| COc1cc(C#Cc2cc(CN3CCN(Cc4ccnc(C#Cc5cc(OC)c(OC)c(OC)c5)c4)CC3)ccn2)cc(OC)c1OC [Example 22, N,N′-bis[[2-(3,4,5-Trimethoxyphenylethynyl)-pyridin-4-yl]methyl]piperazine] | 34 | 50 |

From US6509329B1, “Cyclic diamine compound with 6-membered ring groups” (Kowa Co., Ltd., priority 2001, dated 2003)
